Results filed as inconclusive are left out. Where a SMILES comes first, the peptide text is derived from it. [ ]: non-standard residue; d: D form. The star is where a group is joined. ξ: configuration not given here. ξF = NC(Cc1ccccc1)C(=O)O; Cbz = O=C(OCc1ccccc1)*
System: M. tuberculosis H37Rv growth inhibition, 7H9 media
Assay: M. tuberculosis growth inhibition, HTS (AID 449762);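 further: bacterial growth assessed after seven days of incubation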
Details: for IC90: measured here: IC90 growth inhibition

Compound | IC50 [µM] | IC90 [µM]
Cc1noc(C)c1COc1ccc(C(=O)OCC(=O)NC23CC4CC(CC(C4)C2)C3)cc1 | 8.33 | 24.5
O=C(OCc1ccc([N+](=O)[O-])cc1)c1cc2ccccc2oc1=O | 7.82 | 23.6
CC1CN(C(=S)SCC(=O)c2ccc([N+](=O)[O-])cc2)CC(C)O1 (configuration not stated) | 27 | > 100
CCc1ccc2oc(-c3cc(N=Cc4cccc(OC)c4O)ccc3O)nc2c1 | 35.8 | 69.3
Cc1nn(-c2ccccc2)c(N)c1C(c1ccc(C(C)C)cc1)c1c(C)nn(-c2ccccc2)c1N | 20.4 | 27.1
c1ccc(-c2ccccc2OCCCCn2ccnc2)cc1 | 12.8 | 25.6
COc1ccc(-c2oc(NC(=O)CCl)c(C#N)c2-c2ccc(OC)cc2)cc1 | 12.5 | 54.7
C/C(CCc1ccc2c(c1)OCO2)=N\NC(=S)NC(C)C | 35.7 | 48.4
Cc1ccc(-n2c(C)cc(/C=N/NC(N)=S)c2C)cc1 | 12.7 | 24.6
COc1cc(CNCCc2ccccc2)cc(Cl)c1OCc1ccccc1 | 22.3 | 24.9
Brc1ccc(-c2nc3ncccn3c2Nc2ccc3c(c2)OCCO3)o1 | 59.2 | 90.2
CN1CCN(/N=C/c2c3ccccc3c(Cl)c3ccccc23)CC1 | 77.7 | > 100
CC[C@H](C)[C@@H]1O[C@@]2(C=CC1C)CC1C[C@@H](CC=C(C)C(O[C@H]3CC(OC)C(O[C@H]4CC(OC)C(O)C(C)O4)C(C)O3)C(C)C=CC=C3CO[C@@H]4C(O)C(C)=C[C@@H](C(=O)O1)[C@]34O)O2 (some centres not stated) | 12.7 | 18.1
CCOC(=O)CNC(=O)C(Cc1ccccc1)NC(=O)OCc1ccccc1 (configuration not stated) (Cbz-[ξF]-Gly-OEt) | 2.22 | 3.36
COc1ccc(-c2c(-c3cc(OC)cc(OC)c3)n(C)c3ccc(-c4ccn[nH]4)cc23)cc1 | – | > 100
COc1ccc(C2CC2/C(C)=N/OC(=O)c2ccc(F)cc2)cc1 (configuration not stated) | 13.7 | 51.6
Cc1cccc(N2CCN(CC(=O)Nc3nccs3)CC2)c1C | 16 | 58.5
Nc1c2c(nc3sc4c(c13)CCCCC4)CCCC2 | 4.56 | 13.8
Cn1c(SCc2ccccc2)nc(N)c(N=O)c1=O | 3.5 | 20.8
CCOC(=O)c1nn(-c2ccc(C)c(C)c2)cc1O | 27.1 | > 100
Cc1cccc(CSc2nc3c(c(-c4cccs4)c2C#N)CN(C)CC3)c1 | – | > 100

Compound | IC50 [µM] | IC90 [µM]
Cn1nnc(NC(=S)NC(=O)c2ccc(-c3ccc(Br)cc3)o2)n1 | – | > 100
CCOC(=O)c1ccc(N=Cc2nc3ccccc3n2C)cc1 | 63.5 | > 100
COc1cc(C(=O)/C=C/c2cccnc2)c([N+](=O)[O-])cc1OC | 5.52 | 8.56
O=c1c2cc(Br)cc(Br)c2oc2nc3n(c(=O)c12)CCCS3 | 5.87 | 13.1
COc1cc(OC)cc(-c2cc3nc(C)c(CCC(=O)NC(C)CCc4ccco4)c(C)n3n2)c1 (configuration not stated) | 44.3 | > 100
Cc1ccc(-n2cc(CN(C)Cc3nccn3C)c(-c3cccc(C)c3)n2)cc1 | 9.52 | 13.3
CCCCNC(=S)N/N=C/c1cccc(OCC)c1O | 6.01 | 6.79
CC(C)CNC(=S)NC(=O)c1csc([N+](=O)[O-])c1 | 6.74 | 15.1
Cc1c(C(=O)Oc2cccc3ccccc23)cnn1-c1ccccc1 | 23.7 | 26.9
CCc1ccc2nc(N(CCCN(C)C)C(=O)c3ccc(S(=O)(=O)N4CCCc5ccccc54)cc3)sc2c1 | 28.1 | 33.9
S=C1SCN(Cc2ccco2)CN1Cc1ccco1 | 32.7 | 52.3
Cc1ccc(/C=C2\SC(N3CCCC3)=NC2=O)cc1 | 0.38 | 1.68
COc1ccc(COc2cc(-c3cccc(OC)c3)nc3ccc(NC(=O)c4ccc(OC)cc4)cc23)cc1 | 5.42 | > 100
CNc1nc(SCc2ccccc2Cl)nc2c1CCCC2 | 0.73 | 2.52
CC(=O)c1ccc(NC(=O)c2cc(CC(C)C)on2)cc1 | 11.1 | 14.4
CCOC(=O)N1CCN(c2nc(N(c3ccccc3)c3ccccc3)nc(-n3ccnc3)n2)CC1 | 92.7 | > 100
CCCCOCCCn1c(-c2ccco2)nc2nc3ccccc3nc21 | 94.9 | > 100
CN(/N=C/c1cc(Br)cc(Br)c1O)c1cccc(C(F)(F)F)n1 | 3.93 | 7.43
O=c1cc2[nH]c3ccccc3c(=O)n2nc1-c1ccccc1 | 6.91 | 18
CC(C)(C)OC(=O)NNC(=S)NC1CCCCC1 | 21.2 | 23.8
O=C(Nc1cc(N2CCOCC2)ncn1)NC1(C(F)(F)F)Oc2ccc(Cl)cc2O1 (configuration not stated) | 11.8 | 18.9

Compound | IC50 [µM] | IC90 [µM]
Cc1cccc2c1N(CCCOc1ccc(C(C)(C)C)cc1)C(=O)C2=O | 17.3 | 20.7
CCc1ccc(N=CC23c4ccccc4C(c4ccccc42)C2C(=O)N(c4ccc(OC)cc4)C(=O)C23)cc1 (configuration not stated) | 53.1 | > 100
Cc1ccc(NC(=O)c2cnc(SCC(=O)NCC3CCCO3)n(C)c2=O)cc1C (configuration not stated) | 9.73 | 35.1
Cc1cc(C=C2C(=O)NC(=S)NC2=O)c(C)n1C1CCCC1 | 10.9 | 47.2
COc1ccccc1NC(=O)CN1CCN(CC(=O)Nc2ccc3c(c2)OCO3)CC1 | 14.8 | 33.6
Cn1cccc1/C=C1/C(=O)NC(=S)N(Cc2ccc(F)cc2)C1=O | 24.2 | > 100
O=C(Nc1nc2ccc(F)cc2s1)C1CCN(S(=O)(=O)c2cc([N+](=O)[O-])ccc2Cl)CC1 | 10.9 | 16
C[n+]1c(-c2ccccc2)c2cc(N)ccc2c2ccc(N)cc21 | 7.95 | 10.2
CC(C)C[C@H](NC(=O)c1nc[nH]c1C(=O)NC1CCN(C(=O)OC(C)(C)C)CC1)C(=O)OCc1ccccc1 | 22.4 | 25.4
CCc1c(C)sc2nc3c(C(=O)N4CCOCC4)cc(C(=O)c4cc(F)ccc4O)cn3c(=O)c12 | 47.3 | > 100
NN/C(=C\[N+](=O)[O-])Nc1ccc(Cl)cc1 | 45.9 | > 100
COCCCNC(=O)/C(C#N)=C/c1c(N2CCN(c3cccc(Cl)c3)CC2)nc2c(C)cccn2c1=O | 53.9 | > 100
O=C(NN=C1c2ccccc2-c2ccccc21)c1cccc(Br)c1 | 0.28 | > 100
C=CC[N@@+]12CC[C@]34c5ccccc5N5/C=C6\C7N(/C=C(\C53)[C@@H](C[C@@H]41)/C(=C/CO)C2)c1ccccc1[C@@]71CC[N@@+]2(CC=C)C/C(=C\CO)[C@@H]6C[C@@H]12 (some centres not stated) | 56.7 | > 100
FC(F)(F)c1cc(CO[C@@H]2CCCN[C@@H]2c2ccccc2)cc(C(F)(F)F)c1 | 24.5 | 28.8
CCOC(=O)CSc1nc(N)c(C(=O)Nc2ccc(N(C)C)cc2)s1 | 1.05 | 5.82
COc1ccc(CN(CCC(c2ccccc2)c2ccc(OC(C)C)cc2)C(=O)CCl)cc1OC (configuration not stated) | 6.53 | 12.5
CC(C)Oc1ccc(-c2nc(NCC3CCCO3)c3ccccc3n2)cc1 (configuration not stated) | 68 | 91.3
C=CCc1c(C)nc(SC)nc1Nc1ccc(C(C)=O)cc1 | 23.3 | 32.6
Nc1cc([N+](=O)[O-])cc2oc(-c3ccccc3)cc12 | 98.3 | > 100
CCOC(=O)c1ccc(Oc2nc(NC(C)(C)C)nc(N(C)C)n2)cc1 | 21.3 | 82.2

Compound | IC50 [µM] | IC90 [µM]
COc1ccc(-n2nnnc2S(=O)(=O)CC(=O)N2CCCCC2)cc1 | 12.7 | 27
O=C(c1ccc([N+](=O)[O-])s1)N1CCN(c2ccc(C(F)(F)F)cn2)CC1 | < 0.2 | < 0.2
O=C(/C=C\c1cccs1)N1CCN(Cc2ccc3c(c2)OCO3)CC1 | 1.48 | 5.53
C/C(=N/NC(=O)c1ccccn1)c1c[nH]c2ccccc12 | 6.03 | 11.8
C/C(=N\NC(N)=S)C1C2C3CC4C5CC(C42)C1C53 (configuration not stated) | 28.1 | 58.2
COc1ccc(NC(=O)CSC2CCCCC2)cc1 | 35.2 | > 100
Cc1ccccc1-n1c(SCC(=O)N/N=C/c2c(C)nn(-c3ccccc3)c2C)nc2ccccc2c1=O | 2.85 | 3.52
CCCOc1cccc(C(=O)NC(=S)Nc2ccc(N3CCN(C)CC3)cc2)c1 | – | > 100
CC(=O)N1CCN(c2ccc(Oc3ccc([N+](=O)[O-])c(C(F)(F)F)c3)cc2)CC1 | 7.54 | 19.3
O=C(O)Cc1c[nH]c2ccc(O)cc12 | – | > 100
O=c1oc2ccccc2c2c1nc(C(F)(F)F)n2-c1ccccc1 | 4.39 | 31.1
O=C1C(SCCO)=C(SCCO)C(=O)c2ccccc21 | 6.06 | 6.83
CCC(C)N1CCC2(CC1)N=c1c(c3c4c5c(C)c(O)c3c(O)c1=NC(=O)C(C)=CC=C[C@H](C)[C@H](O)[C@@H](C)[C@@H](O)[C@@H](C)[C@H](OC(C)=O)[C@H](C)[C@@H](OC)C=CO[C@@](C)(O5)C4=O)N2 (some centres not stated) | < 0.2 | < 0.2
C/C(O)=C\c1nc2ccccc2oc1=O | 0.77 | 0.86
Cn1c(CNc2ccccc2O)nc2ccccc21 | 3.01 | 3.52
Cc1cc(/C=C(/C#N)c2cccc(F)c2)c(C)n1-c1cccnc1 | – | > 100
C=CCOc1ccc(C2C(C#N)=C(N)N(Nc3ccccc3)C3=C2C(=O)CC(C)(C)C3)cc1OC (configuration not stated) | 30.1 | 68.2
C#CCCc1cscc1/C=[N+](\[O-])c1ccc(C(=O)OCC)cc1 | 99.1 | > 100
CCn1c2ccccc2c2cc(CN3CCN(Cc4cc(OC)ccc4O)CC3)ccc21 | 16.8 | 23.5
CC(C)(C)NC(=O)[C@@H]1C[C@@H]2CCCC[C@@H]2CN1C[C@@H](O)[C@H](Cc1ccccc1)NC(=O)[C@H](CC(N)=O)NC(=O)c1ccc2ccccc2n1 | 40.1 | 51.9
O=C(c1cccc([N+](=O)[O-])c1)N1CCN(c2ccc(N3CCOCC3)nn2)CC1 | 19.7 | 26.6

From PubChem BioAssay AID449762 (Southern Research Specialized Biocontainment Screening …, 2010)
